This note sets out measurements from patent US9980943B2, “Methods of treating muscular dystrophy” (BOARD OF REGENTS OF THE NEVADA SYSTEM OF HIGHER EDUCATION, …, priority 2013, dated 2018).

Assay type in all cases: cell-based, mouse
Experiment [1] relates to β-galactosidase in CMV-LacZ C2C12 myotubes. The experiment is described as follows: CMV-LacZ secondary screen in C2C12 myotubes (β-Gal stabilizing assay). The following applies: for CMV-LACZ in Myotubes, signal relative to DMSO: C2C12 CMV-LacZ myotubes, fold relative to DMSO; for CMV-LACZ in Myotubes, value relative to DMSO: SU9516 analogs, C2C12 CMV-LacZ, N=2. An outline of the steps:
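A secondary screen identifies compounds that stabilize β-gal independently of the native promoter, using CMV-LacZ C2C12 cells. Curves span 0.5–40 μM at six levels, in duplicate.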

The subject of experiment [2] is α7 integrin (LacZ reporter in α7βgal+/− myoblasts). Put plainly: Myoblast α7+/LacZ integrin FDG assay (Burkin assay in myoblasts, 96-well). The following applies: for Burkin Assay in Myoblasts, signal relative to DMSO: α7+/LacZ myoblasts, 96-well.
The subject of experiment [3] is α7 integrin (LacZ reporter in α7+/LacZ myotubes). The experiment is described as follows: Myotube α7 integrin FDG assay (Burkin assay in myotubes, 96-well). The following applies: for Burkin Assay in Myotubes, value relative to DMSO: SU9516 analogs, 96-well, N=3-6.
Experiment [4] deals with β-galactosidase in CMV-LacZ C2C12 myoblasts. Put plainly: CMV-LacZ secondary screen in C2C12 myoblasts (β-Gal stabilizing assay). The following applies: for CMV-LACZ in Myoblasts (β-galactosidase activity relative to DMSO): CMV-LacZ C2C12 myoblasts; for CMV-LACZ in Myoblasts, value relative to DMSO: SU9516 analogs, C2C12 CMV-LacZ, N=2. An outline of the steps: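 Dose-response runs at 0.5–40 μM (0.5, 1, 5, 10, 20, 40 μM; N=2 per point) used a clonal C2C12 line carrying CMV-LacZ. Cells were assayed as myoblasts or as differentiated myotubes, and β-galactosidase levels were read with the FDG fluorogenic substrate.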

The mark [5] stands for this setting: Mus musculus, Myoblast, 48 h, read-out: Burkin Assay in Myoblasts, value relative to DMSO.

On to `CCOC(=O)c1cc(-c2cccs2)nc2c1c(C)nn2-c1ccccn1` [MLS001006516-01], for which the “CMV-LACZ in Myotubes, signal relative to DMSO” value in experiment [1] (0.5 uM) worked out at 0.9581; in experiment [1] (1 uM), 0.9257; in experiment [1] (5 uM), 0.9283; in experiment [1] (10 uM) it was 0.8542; in experiment [1] (20 uM), 0.9032; in experiment [1] (40 uM), 0.9484. Besides, the “Burkin Assay in Myoblasts, signal relative to DMSO” value in experiment [2] (0.5 uM) turned out to be 1.097; in experiment [2] (1 uM), 1.134; in experiment [2] (5 uM) it was 0.8796; in experiment [2] (10 uM) it was 0.7932; in experiment [2] (20 uM), 0.6928; in experiment [2] (40 uM), 0.4802. The “Burkin Assay in Myotubes, α7 integrin LacZ reporter signal relative to DMSO” value in experiment [3] (0.5 uM) worked out at 0.9261; in experiment [3] (1 uM), 0.8714; in experiment [3] (5 uM), 0.9257; in experiment [3] (10 uM), 0.9085; in experiment [3] (20 uM), 0.7127; in experiment [3] (40 uM), 0.7127. Further, the “CMV-LACZ in Myoblasts (β-galactosidase activity relative to DMSO)” value in experiment [4] (0.5 uM) amounted to 1.0038; in experiment [4] (1 uM), 0.8858; in experiment [4] (5 uM) it was 0.9829; in experiment [4] (10 uM), 0.9076; in experiment [4] (20 uM) it was 0.4956; in experiment [4] (40 uM), 0.6589.

With `CCc1nc(/C=C2\C(=O)Nc3ccccc32)c[nH]1` [MLS000834755-01], the “CMV-LACZ in Myotubes, value relative to DMSO” value in experiment [1] (0.5 uM) was 0.5547; in experiment [1] (1 uM), 1.2863; in experiment [1] (5 uM) it was 1.0514; in experiment [1] (10 uM), 1.1048; in experiment [1] (20 uM), 1.2989; in experiment [1] (40 uM) it was 0.8789. For the same compound, the fold induction at 0.5 µM in experiment [2] (setting [5]) was determined as 1.27. Also, the fold induction at 1 µM in experiment [2] (setting [5]) was found to be 1.08. Further, the fold induction at 5 µM in experiment [2] (setting [5]) was found to be 1.08. Besides, the fold induction at 10 µM in experiment [2] (setting [5]) turned out to be 1.16. Besides, the fold induction at 20 µM in experiment [2] (setting [5]) is 1.19. In addition, the fold induction at 40 µM in experiment [2] (setting [5]) came to 0.796. Besides, the “Burkin Assay in Myotubes, value relative to DMSO” value in experiment [3] (0.5 uM) is listed as 1.263; in experiment [3] (1 uM) it was 1.232; in experiment [3] (5 uM) it was 1.003; in experiment [3] (10 uM) it was 0.9868; in experiment [3] (20 uM) it was 0.9687; in experiment [3] (40 uM) it was 0.816. Moreover, the “CMV-LACZ in Myoblasts, value relative to DMSO” value is reported as 1.0317 in experiment [4] (0.5 uM); 1.0400 in experiment [4] (1 uM); 0.9591 in experiment [4] (5 uM); 0.9834 in experiment [4] (10 uM); 0.9007 in experiment [4] (20 uM); 0.9133 in experiment [4] (40 uM).
